In patent US20240270762A1, “PENICILLIN-BINDING PROTEIN INHIBITORS” (priority 2021, published 2024):
Values after ≈ are worked out from the molar mass of the structure shown.

What was measured:
[1] = tested on: P. aeruginosa (ΔmexAB-oprM); test: Broth microdilution MIC in CAMHB; format: cell-based; conditions: Pseudomonas aeruginosa; read-out: MIC P. aeruginosa ΔmexAB-oprM
N. gonorrhoeae CDC-0197 = test: Liquid broth MIC in Fastidious broth; conditions: Neisseria gonorrhoeae, CDC0197, read-out: Minimum Inhibitory Concentration (MIC), N. gonorrhoeae CDC-0197
E. coli AG100 = test: microbe, parasite or virus in culture; format: cell-based; conditions: Escherichia coli, AG100, read-out: MIC E. coli AG100
K. pneumoniae 848844 = test: microbe, parasite or virus in culture; format: cell-based; conditions: Klebsiella pneumoniae, 848844, read-out: MIC K. pneumoniae 848844
N. gonorrhoeae WHO X = test: Liquid broth MIC in Fastidious broth; conditions: Neisseria gonorrhoeae, read-out: Minimum Inhibitory Concentration (MIC), N. gonorrhoeae WHO X
N. gonorrhoeae WHO G = test: Liquid broth MIC in Fastidious broth; conditions: Neisseria gonorrhoeae, read-out: Minimum Inhibitory Concentration (MIC), N. gonorrhoeae WHO G
P. aeruginosa ATCC 35151 = test: microbe, parasite or virus in culture; format: cell-based; conditions: Pseudomonas aeruginosa, ATCC35151, read-out: MIC P. aeruginosa ATCC 35151
E. coli AG100A = test: Broth microdilution MIC in CAMHB; format: cell-based; conditions: Escherichia coli, read-out: MIC E. coli AG100A
K. pneumoniae SI-117 = test: microbe, parasite or virus in culture; format: cell-based; conditions: Klebsiella pneumoniae, SI117, read-out: MIC K. pneumoniae SI-117
N. gonorrhoeae WHO L = test: Liquid broth MIC in Fastidious broth; conditions: Neisseria gonorrhoeae, read-out: Minimum Inhibitory Concentration (MIC), N. gonorrhoeae WHO L
Procedure: Liquid broth-based assays were used for antibacterial testing of PBP inhibitors in Neisseria gonorrhoeae. Briefly, cryo-preserved bacterial cultures of clinical strains were streaked for isolation on Chocolate Agar (72 g/L (2×) GC Agar Base (BD #228950) and 2% (2×) Hemoglobin was autoclaved at 121° C. for 20 minutes to sterilize. Once cooled to ˜50° C. the 2×GC Agar Base and 2× Hemoglobin solutions are combined and 1% IsoVitaleX Enrichment (BD #211876) was added to the solution). Strains were incubated at 36° C. and 5% CO2 to allow growth of colonies, 24 hours before inoculum preparation. 2-fold serial dilutions of test compounds were conducted in a 96 well plate with a final volume of 75 μL per well at 2-fold the final desired concentration in Fastidious broth (Remel #R07664). For preparation of assay inoculum, a direct suspension was prepared by aseptically swabbing 10-15 colonies from agar plates into culture tubes containing 2 mL of fresh sterile saline. After the dilution plates were set up, direct suspensions were then diluted in a cuvette containing sterile saline and the optical density was measured at 600 nm. Inocula were diluted such that 75 μL of this culture in Fastidious broth results in a starting bacterial concentration of 5×10^5 CFU/mL when added to the dilution plates. The plates were incubated for ˜24 hours at 36° C. and 5% CO2.

N. gonorrhoeae WHO M = test: Liquid broth MIC in Fastidious broth; conditions: Neisseria gonorrhoeae, read-out: Minimum Inhibitory Concentration (MIC), N. gonorrhoeae WHO M
A. baumannii ATCC 19606 = test: microbe, parasite or virus in culture; format: cell-based; conditions: Acinetobacter baumannii, ATCC19606, read-out: MIC, A. baumannii ATCC 19606
N. gonorrhoeae FA1090 = test: Liquid broth MIC in Fastidious broth; conditions: Neisseria gonorrhoeae, FA1090, read-out: Minimum Inhibitory Concentration (MIC), N. gonorrhoeae FA 1090
E. coli D22 = test: microbe, parasite or virus in culture; format: cell-based; conditions: Escherichia coli, D22, read-out: MIC E. coli D22
[2] = tested on: N. gonorrhoeae ATCC 49226; test: Liquid broth MIC in Fastidious broth; conditions: Neisseria gonorrhoeae, ATCC49226, read-out: Minimum Inhibitory Concentration (MIC), N. gonorrhoeae ATCC 49226
[3] = molecular target: T1, PBP3 from Escherichia coli (K-12) (Escherichia coli, UniProt P0AD68); test: Bocillin-FL fluorescence polarization competition binding, E. coli PBP3
T1 construct: made in house
Outline: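 Purified PBPs pre-incubated with inhibitor (E. coli PBP3 1.5 μM, 30 min; P. aeruginosa PBP3 0.75 μM, A. baumannii PBP1a 1 μM and PBP3 0.2 μM, 15 min), then Bocillin-FL 0.1 μM (0.05 μM for PBP1a) added; FP read up to 60 min. EC50 = concentration halving bound Bocillin-FL.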

T1 sequence (P0AD68 1-577): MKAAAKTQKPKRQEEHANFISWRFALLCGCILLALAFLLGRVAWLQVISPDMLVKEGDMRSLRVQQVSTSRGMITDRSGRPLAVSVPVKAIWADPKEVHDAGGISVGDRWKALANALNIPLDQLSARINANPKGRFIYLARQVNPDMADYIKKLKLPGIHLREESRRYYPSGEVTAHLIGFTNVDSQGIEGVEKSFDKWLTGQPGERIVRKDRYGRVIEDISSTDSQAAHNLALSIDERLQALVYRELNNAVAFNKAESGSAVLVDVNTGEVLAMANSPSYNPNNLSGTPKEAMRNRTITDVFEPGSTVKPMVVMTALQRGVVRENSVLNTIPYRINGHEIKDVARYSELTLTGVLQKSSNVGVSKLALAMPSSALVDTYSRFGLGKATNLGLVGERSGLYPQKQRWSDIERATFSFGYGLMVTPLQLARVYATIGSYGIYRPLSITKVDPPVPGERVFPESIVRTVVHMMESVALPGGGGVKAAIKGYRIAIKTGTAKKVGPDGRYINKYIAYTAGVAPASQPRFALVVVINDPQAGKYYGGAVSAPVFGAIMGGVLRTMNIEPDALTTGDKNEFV

| SMILES | MIC [1] [µg/mL] | MIC (N. gonorrhoeae CDC-0197) [µg/mL] | MIC (E. coli AG100) [µg/mL] | MIC (K. pneumoniae 848844) [µg/mL] | MIC (N. gonorrhoeae WHO X) [µg/mL] | MIC (N. gonorrhoeae WHO G) [µg/mL] | MIC (P. aeruginosa ATCC 35151) [µg/mL] | MIC (E. coli AG100A) [µg/mL] | MIC (K. pneumoniae SI-117) [µg/mL] | MIC (N. gonorrhoeae WHO L) [µg/mL] | MIC (N. gonorrhoeae WHO M) [µg/mL] | MIC (A. baumannii ATCC 19606) [µg/mL] | MIC (N. gonorrhoeae FA1090) [µg/mL] | MIC (E. coli D22) [µg/mL] | MIC [2] [µg/mL] | EC50 [3] [µM] |
| --- | --- | --- | --- | --- | --- | --- | --- | --- | --- | --- | --- | --- | --- | --- | --- | --- |
| Nc1nc(C(=O)N[C@@H](C(=O)N[C@H]2Cc3cccc(C(=O)O)c3OB2O)c2ccc(P(=O)(O)O)cc2)cs1 (racemic) [Example 51, (R)-3-((S)-2-(2-aminothiazole-4-carboxamido)-2-(4-phosphonophenyl)acetamido)-2-hydroxy-3,4-dihydro-2H-benzo[e][1,2]oxaborinine-8-carboxylic acid and (R)-3-((R)-2-(2-aminothiazole-4-carboxamido)-2-(4-phosphonophenyl)acetamido)-2-hydroxy-3,4-dihydro-2H-benzo[e][1,2]oxaborinine-8-carboxylic acid] | 32 to 64 (≈ 58.6 to 117 µM) | < 1 | > 128 | > 128 | 4 to 8 (≈ 7.32 to 14.6 µM) | < 1 | 2 to 4 (≈ 3.66 to 7.32 µM) | 32 to 64 (≈ 58.6 to 117 µM) | > 128 | 4 to 8 (≈ 7.32 to 14.6 µM) | < 1 | > 128 | < 1 | 2 to 4 (≈ 3.66 to 7.32 µM) | < 1 | 10 to 50 |
| CN1CCC[C@@H]1C(=O)N[C@@H](C(=O)N[C@H]1Cc2cccc(C(=O)O)c2OB1O)c1ccc(P(=O)(O)O)cc1 (racemic) [Example 54, (R)-2-hydroxy-3-((S)-2-((R)-1-methylpyrrolidine-2-carboxamido)-2-(4-phosphonophenyl)acetamido)-3,4-dihydro-2H-benzo[e][1,2]oxaborinine-8-carboxylic acid and (R)-2-hydroxy-3-((R)-2-((R)-1-methylpyrrolidine-2-carboxamido)-2-(4-phosphonophenyl)acetamido)-3,4-dihydro-2H-benzo[e][1,2]oxaborinine-8-carboxylic acid] | > 128 | 4 to 8 (≈ 7.53 to 15.1 µM) | > 128 | > 128 | 16 to 32 (≈ 30.1 to 60.2 µM) | 16 to 32 (≈ 30.1 to 60.2 µM) | 32 to 64 (≈ 60.2 to 120 µM) | > 128 | > 128 | 16 to 32 (≈ 30.1 to 60.2 µM) | 4 to 8 (≈ 7.53 to 15.1 µM) | > 128 | 4 to 8 (≈ 7.53 to 15.1 µM) | > 128 | 16 to 32 (≈ 30.1 to 60.2 µM) | 50 to 250 |
| CCN1CCN(C(=O)N[C@@H](C(=O)N[C@H]2Cc3cccc(C(=O)O)c3OB2O)c2ccc(P(=O)(O)O)c(F)c2)C(=O)C1=O (single isomer, unassigned) [Example 7] | 8 to 16 (≈ 13.2 to 26.4 µM) | < 1 | 8 to 16 (≈ 13.2 to 26.4 µM) | > 128 | < 1 | < 1 | < 1 | 8 to 16 (≈ 13.2 to 26.4 µM) | > 128 | < 1 | < 1 | 8 to 16 (≈ 13.2 to 26.4 µM) | < 1 | 2 to 4 (≈ 3.3 to 6.6 µM) | < 1 | < 10 |
| CCN1CCN(C(=O)N[C@H](C(=O)N[C@H]2Cc3ccc(F)c(C(=O)O)c3OB2O)c2ccc(P(=O)(O)O)cc2)C(=O)C1=O (single isomer, unassigned) [Example 9] | > 128 | < 1 | > 128 | > 128 | 1 to 2 (≈ 1.65 to 3.3 µM) | < 1 | 8 to 16 (≈ 13.2 to 26.4 µM) | > 128 | > 128 | 4 to 8 (≈ 6.6 to 13.2 µM) | < 1 | > 128 | < 1 | 32 to 64 (≈ 52.8 to 106 µM) | 1 to 2 (≈ 1.65 to 3.3 µM) | 50 to 250 |
| CCN1CCN(C(=O)N[C@@H](C(=O)N[C@H]2Cc3ccc(F)c(C(=O)O)c3OB2O)c2ccc(P(=O)(O)O)cc2)C(=O)C1=O (single isomer, unassigned) [Example 10] | 32 to 64 (≈ 52.8 to 106 µM) | < 1 | > 128 | > 128 | < 1 | < 1 | < 1 | 32 to 64 (≈ 52.8 to 106 µM) | > 128 | < 1 | < 1 | 32 to 64 (≈ 52.8 to 106 µM) | < 1 | 8 to 16 (≈ 13.2 to 26.4 µM) | < 1 | < 10 |
| CS(=O)(=O)N1CCN(C(=O)N[C@@H](C(=O)N[C@H]2Cc3cccc(C(=O)O)c3OB2O)c2ccc(P(=O)(O)O)c(F)c2F)C1=O (single isomer, unassigned) [Example 13] | 32 to 64 (≈ 49.5 to 99 µM) | < 1 | 32 to 64 (≈ 49.5 to 99 µM) | > 128 | < 1 | < 1 | 2 to 4 (≈ 3.09 to 6.19 µM) | 8 to 16 (≈ 12.4 to 24.8 µM) | > 128 | < 1 | < 1 | 32 to 64 (≈ 49.5 to 99 µM) | < 1 | 8 to 16 (≈ 12.4 to 24.8 µM) | < 1 | < 10 |
| CS(=O)(=O)N1CCN(C(=O)N[C@@H](C(=O)N[C@H]2Cc3cccc(C(=O)O)c3OB2O)c2ccc(P(=O)(O)O)c(F)c2)C1=O (single isomer, unassigned) [Example 15] | 32 to 64 (≈ 50.9 to 102 µM) | < 1 | 32 to 64 (≈ 50.9 to 102 µM) | > 128 | < 1 | < 1 | 2 to 4 (≈ 3.18 to 6.37 µM) | 8 to 16 (≈ 12.7 to 25.5 µM) | > 128 | < 1 | < 1 | 32 to 64 (≈ 50.9 to 102 µM) | < 1 | 2 to 4 (≈ 3.18 to 6.37 µM) | < 1 | < 10 |
| CS(=O)(=O)N1CCN(C(=O)N[C@@H](C(=O)N[C@H]2Cc3cccc(C(=O)O)c3OB2O)c2cc(F)c(P(=O)(O)O)c(F)c2)C1=O (single isomer, unassigned) [Example 18] | 32 to 64 (≈ 49.5 to 99 µM) | < 1 | 32 to 64 (≈ 49.5 to 99 µM) | > 128 | < 1 | < 1 | 2 to 4 (≈ 3.09 to 6.19 µM) | 8 to 16 (≈ 12.4 to 24.8 µM) | > 128 | < 1 | < 1 | 32 to 64 (≈ 49.5 to 99 µM) | < 1 | 8 to 16 (≈ 12.4 to 24.8 µM) | < 1 | < 10 |
| CS(=O)(=O)N1CCN(C(=O)N[C@@H](C(=O)N[C@H]2Cc3ccc(F)c(C(=O)O)c3OB2O)c2ccc(P(=O)(O)O)c(F)c2)C1=O (single isomer, unassigned) [Example 19] | 32 to 64 (≈ 49.5 to 99 µM) | < 1 | > 128 | > 128 | < 1 | < 1 | 2 to 4 (≈ 3.09 to 6.19 µM) | 32 to 64 (≈ 49.5 to 99 µM) | > 128 | < 1 | < 1 | > 128 | < 1 | 8 to 16 (≈ 12.4 to 24.8 µM) | < 1 | < 10 |
| CCN1CCN(C(=O)N[C@@H](C(=O)N[C@H]2Cc3cccc(C(=O)O)c3OB2O)c2ccc(P(C)(=O)O)cc2)C(=O)C1=O (single isomer, unassigned) [Example 47] | 8 to 16 (≈ 13.6 to 27.3 µM) | 1 to 2 (≈ 1.71 to 3.41 µM) | 8 to 16 (≈ 13.6 to 27.3 µM) | > 128 | 4 to 8 (≈ 6.82 to 13.6 µM) | < 1 | < 1 | 8 to 16 (≈ 13.6 to 27.3 µM) | > 128 | 4 to 8 (≈ 6.82 to 13.6 µM) | < 1 | 32 to 64 (≈ 54.6 to 109 µM) | < 1 | 2 to 4 (≈ 3.41 to 6.82 µM) | < 1 | < 10 |
| N[C@@H](C(=O)N[C@H]1Cc2cccc(C(=O)O)c2OB1O)c1ccc(P(=O)(O)O)cc1 (single isomer, unassigned) [Example 171] | > 128 | > 64 | > 128 | > 128 | > 64 | > 64 | > 128 | > 128 | > 128 | > 64 | > 64 | > 128 | > 64 | > 128 | > 64 | > 250 |
| O=C(O)c1cccc2c1OB(O)[C@@H](NC(=O)[C@@H](NC(=O)c1ccn[nH]c1=O)c1ccc(P(=O)(O)O)cc1)C2 (single isomer, unassigned) [Example 177] | > 128 | 1 to 2 (≈ 1.84 to 3.69 µM) | > 128 | > 128 | 16 to 32 (≈ 29.5 to 59 µM) | < 1 | 2 to 4 (≈ 3.69 to 7.38 µM) | > 128 | > 128 | 4 to 8 (≈ 7.38 to 14.8 µM) | < 1 | > 128 | < 1 | 32 to 64 (≈ 59 to 118 µM) | 1 to 2 (≈ 1.84 to 3.69 µM) | 10 to 50 |
